From patent US6573247B1, “Anti-viral pyrimidine nucleoside analogues” (University College Cardiff Consultants Limited, priority 1997, dated 2003)
“Also recorded” adds a separate entry of the source. Like-named read-outs stand apart in the source and are kept apart here.

Legend:
[1] = system: human embryonic lung fibroblast (HEL) cells; assay: CC50 in tissue culture assay; type: cell-based
Description: (§1) Each of the products of Examples 1, 2, 3 and 4 was tested in vitro in tissue culture assays for potent antiviral action with respect to varicella zoster virus (VZV). Acyclovir was included in the test procedure as a control. VZV (strains OKa and YS) induced cytopathogenicity in human embryonic lung fibroblast (HEL) cells was measured 7 days post infection. EC50 was defined as the drug concentration (in μM) required to reduce virus-induced cytopathicity by 50%.
(§2) Each of the products of Examples 7 and 8 was tested in vitro in tissue culture assays for potent antiviral action with respect to varicella zoster virus (VZV). Acyclovir was included in the test procedure as a control. EC50 and CC50 values were measured as described under examples 1 to 6 above. […]

[2] = system: varicella zoster virus (VZV) (strains OKa and YS); assay: microbe, parasite or virus in culture; type: cell-based; details: for EC50: read-out: EC50/VZV/μM; for antiviral activity with respect to varicella zoster virus (in words): verbal assessment
Description: VZV (strains OKa and YS) induced cytopathogenicity in human embryonic lung fibroblast (HEL) cells was measured 7 days post infection. EC50 was defined as the drug concentration (in μM) required to reduce virus-induced cytopathicity by 50%.
The values of EC50 and CC50 were measured as above.

HSV-2 = details: cited from earlier work
VZV = details: cited from earlier work
HSV-1 = details: cited from earlier work
CMV = details: cited from earlier work
[3] = CC50 in tissue culture assay; type: cell-based, human; details: human
Description: as §1, §2

cytomegalovirus (CMV) = assay: CMV induced cytopathogenicity in HEL cells (in vitro tissue culture assay); type: cell-based; details: for EC50: Table IV, CMV induced cytopathogenicity in HEL cells
Description: The product of Example 8 was additionally tested in vitro in tissue culture assays for potent antiviral action with respect to cytomegalovirus (CMV). CMV induced cytopatho-genicity in human embryonic lung fibroblast (HEL) cells was measured post infection. EC50 and CC50 were defined as above for VZV. The equivalent data for the known CMV active agent dihydroxypropyl guanine (DHPG) is included in Table IV as a control.

[4] = Table I, VZV strains OKa and YS, HEL cells, 7 days post infection, concentration reducing virus-induced cytopathicity by 50%
[5] = Table II, X = O, R chain length series, concentration reducing virus-induced cytopathicity by 50%
[6] = Table III, measured as under examples 1 to 6

Structure (SMILES): O=c1nc2oc(CCCO)cc2cn1[C@H]1C[C@H](O)[C@@H](CO)O1 [Example 9, 3-(2′-Deoxy-β-D-ribofuranosyl)-6-(3-hydroxypropyl)-2,3-dihydrofuro[2,3-d]pyrimidin-2-one]
- CC50 [1]: > 200 µM
- EC50 ([2]; Table V): 9.7 µM
- antiviral activity with respect to varicella zoster virus (in words) [2]: low activity

Structure (SMILES): O=c1nc2occc2cn1C1CC(O)C(CO)O1 (stereo not shown)
- activity in in vitro assay against HSV-2 (HSV-2): inactive
- activity in in vitro assay against VZV (VZV): inactive
- activity in in vitro assay against HSV-1 (HSV-1): inactive
- activity in in vitro assay against CMV (CMV): inactive

Structure (SMILES): CCCCCCc1cc2cn([C@H]3C[C@H](O)[C@@H](CO)O3)c(=O)nc2[nH]1 [Example 12, 3-(2′-Deoxy-β-D-ribofuranosyl)-6-hexyl,3,7-dihydro-2H-pyrrolo[2,3-d]pyrimidin-2-one]
- EC50 ([2]; Table VII): > 50 µM

Structure (SMILES): CCCCCCc1cc2cn([C@H]3C[C@H](O)[C@@H](CO)O3)c(=O)nc2o1 [Example 4, 3-(2′-Deoxy-β-D-ribofuranosyl)-6-hexyl-2,3-dihydrofuro[2,3-d]pyrimidin-2-one]
- CC50 [1]: > 200 µM
- EC50 [2, 4]: 1.3 µM
- EC50 [2, 5]: 1.3 µM

Structure (SMILES): CCCCCCCCc1cc2cn(C3CC(O)C(CO)O3)c(=O)nc2o1 [Example 3, 3-(2′-Deoxy-β-D-ribofuranosyl)-6-octyl-2,3-dihydrofuro[2,3-d]pyrimidin-2-one]
- CC50 [3]: > 50 µM
- EC50 ([2]; Human alphaherpesvirus 3, HEL, 168 h): 0.003 µM
- EC50 ([2]; Human alphaherpesvirus 3, HEL): 0.03 µM
- antiviral activity with respect to varicella zoster virus (in words) [2]: extremely potent antiviral activity; also recorded: antiviral activity comparable to acyclovir

Structure (SMILES): O=c1nc2oc(CCCCCCCCCCl)cc2cn1C1CC(O)C(CO)O1 (stereo not shown) [Example 8, 6-(9-chlorononyl)-3-(4-hydroxy-5-(hydroxymethyl)tetrahydro-2-furanyl)-2,3-dihydrofuro[2,3,-d]pyrimidin-2-one]
- EC50 (cytomegalovirus (CMV)): 7.2 µM
- antiviral activity with respect to CMV (in words) (cytomegalovirus (CMV); verbal assessment): comparable to DHPG
- EC50 [2, 6]: 0.006 µM

Structure (SMILES): CCCCCCCc1cc2cn([C@H]3C[C@H](O)[C@@H](CO)O3)c(=O)nc2o1 [Example 6, 3-(2′-Deoxy-β-D-ribofuranosyl)-6-heptyl-2,3-dihydrofuro[2,3-d]pyrimidin-2-one]
- EC50 [2, 5]: 0.17 µM

Structure (SMILES): Nc1nc2c(ncn2COCCO)c(=O)[nH]1 [Acyclovir, reference compound]
- CC50 [3]: > 100 µM
- CC50 ([1]; human): > 100 µM

Structure (SMILES): Nc1nc2c(ncn2COC(CO)CO)c(=O)[nH]1 [DHPG, dihydroxypropyl guanine, reference compound]
- EC50 (cytomegalovirus (CMV)): 3.1 µM
- CC50 [1]: > 200 µM

Structure (SMILES): CCCCCc1cc2cn([C@H]3C[C@H](O)[C@@H](CO)O3)c(=O)nc2o1 [Example 5, 3-(2′-Deoxy-β-D-ribofuranosyl)-6-pentyl-2,3-dihydrofuro[2,3-d]pyrimidin-2-one]
- EC50 [2, 5]: 3 µM

Structure (SMILES): CCCCCCCCCCCCc1cc2cn([C@H]3C[C@H](O)[C@@H](CO)O3)c(=O)nc2[nH]1 [Example 14, 3-(2′-Deoxy-β-D-ribofuranosyl)-6-dodecyl-3,7-dihydro-2H-pyrollo[2,3-d]pyrimidin-2-one]
- CC50 [1]: > 200 µM
- EC50 ([2]; Table VII): 3.7 µM

Structure (SMILES): O=c1nc2oc(CCCCCCCCCO)cc2cn1[C@H]1C[C@H](O)[C@@H](CO)O1 [Example 7, 3-(2′-Deoxy-β-D-ribofuranosyl)-6-(9-hydroxynonyl)-2,3′-dihydrofuro[2,3-d]pyrimidin-2-one]
- CC50 [1]: > 200 µM
- EC50 [2, 6]: 0.4 µM

Structure (SMILES): CCCCCCCCCCc1cc2cn([C@H]3C[C@H](O)[C@@H](CO)O3)c(=O)nc2o1 [Example 2, 3-(2′-Deoxy-β-D-ribofuranosyl)-6-decyl-2,3-dihydrofuro[2,3-d]pyrimidin-2-one]
- CC50 [1]: > 50 µM
- EC50 [2, 4]: 0.005 µM
- EC50 [2, 5]: 0.005 µM
- antiviral activity with respect to varicella zoster virus (in words) [2]: extremely potent antiviral activity

Structure (SMILES): CCCCCCCCc1cc2cn([C@H]3C[C@H](O)[C@@H](CO)O3)c(=O)nc2[nH]1 [Example 13, 3-(2′-Deoxy-β-D-ribofuranosyl)-6-octyl,3,7-dihydro-2H-pyrrolo[2,3-d]pyrimidin-2-one]
- EC50 ([2]; Table VII): 0.15 µM

Structure (SMILES): CCCCCCCCCCCCc1cc2cn([C@H]3C[C@H](O)[C@@H](CO)O3)c(=O)nc2o1 [Example 1, 3-(2′-Deoxy-β-D-ribofuranosyl)-6-dodecyl-2,3dihydrofuro[2,3-d]pyrimidin-2-one]
- CC50 ([1]; Table I, read-out: CC50/μM): > 200 µM
- EC50 [2, 4]: ≤ 1.2 µM
- EC50 [2, 5]: ≤ 1.2 µM
- antiviral activity with respect to varicella zoster virus (in words) [2]: antiviral activity comparable to acyclovir

Structure (SMILES): O=c1nc2oc(CCCCO)cc2cn1[C@H]1C[C@H](O)[C@@H](CO)O1 [Example 10, 3-(2′-Deoxy-β-D-ribofuranosyl)-6-(4-hydroxybutyl)-2,3-dihydrofuro[2,3-d]pyrimidin-2-one]
- CC50 [1]: > 200 µM
- EC50 ([2]; Table V): 29 µM
- antiviral activity with respect to varicella zoster virus (in words) [2]: low activity
